For data set [1] the following is noted: 101 kPa, Liquid; for viscosity: Capillary tube (Ostwald / Ubbelohde) method.
Data set [2] can be described thus: xn = mol fraction of the nth substance listed. To be noted: 101 kPa, Liquid, x1 = 1; for viscosity: Capillary tube (Ostwald / Ubbelohde) method.

Numbers after ± are expanded uncertainties.

As usually defined, the mass density is mass per unit of volume. What is called viscosity is the internal friction of a fluid under shear. `CCCO` [propan-1-ol]: the mass density in data set [1] (298.15 K) came out at 799.557 ± 1.3 kg/m3; in data set [1] (303.15 K), 795.543 ± 1.3 kg/m3; in data set [1] (308.15 K), 791.479 ± 1.4 kg/m3; in data set [1] (313.15 K), 787.371 ± 1.4 kg/m3. The viscosity in data set [1] (298.15 K) stood at 1.941 ± 0.024 mPa·s; in data set [1] (303.15 K), 1.728 ± 0.021 mPa·s; in data set [1] (308.15 K) it was 1.545 ± 0.019 mPa·s; in data set [1] (313.15 K) it was 1.385 ± 0.017 mPa·s.
Take `CCCCO` [butan-1-ol]: the mass density worked out at 805.814 ± 1.3 kg/m3 in data set [1] (298.15 K), 801.996 ± 1.3 kg/m3 in data set [1] (303.15 K), 798.13 ± 1.4 kg/m3 in data set [1] (308.15 K) and 794.226 ± 1.4 kg/m3 in data set [1] (313.15 K). Also, the viscosity in data set [1] (298.15 K) was found to be 2.577 ± 0.032 mPa·s; in data set [1] (303.15 K), 2.272 ± 0.029 mPa·s; in data set [1] (308.15 K), 2.01 ± 0.025 mPa·s; in data set [1] (313.15 K), 1.786 ± 0.023 mPa·s.
Consider `CCCO` [propan-1-ol] + CCC(=O)[O-].CC[NH+]1CCNCC1, for which the viscosity in data set [2] (298.15 K) is listed as 1.941 ± 0.024 mPa·s; in data set [2] (303.15 K), 1.728 ± 0.021 mPa·s; in data set [2] (308.15 K) it was 1.545 ± 0.019 mPa·s; in data set [2] (313.15 K) it was 1.385 ± 0.017 mPa·s. In addition, the mass density in data set [2] (298.15 K) was 799.557 ± 1.3 kg/m3; in data set [2] (303.15 K) it was 795.543 ± 1.3 kg/m3; in data set [2] (308.15 K), 791.479 ± 1.4 kg/m3; in data set [2] (313.15 K), 787.371 ± 1.4 kg/m3.
For the molecule `CCCCO` [butan-1-ol] + CCC(=O)[O-].CC[NH+]1CCNCC1, the viscosity in data set [2] (298.15 K) was determined as 2.577 ± 0.032 mPa·s; in data set [2] (303.15 K), 2.272 ± 0.029 mPa·s; in data set [2] (308.15 K) it was 2.01 ± 0.025 mPa·s; in data set [2] (313.15 K), 1.786 ± 0.023 mPa·s. In addition, the mass density in data set [2] (298.15 K) is recorded as 805.814 ± 1.3 kg/m3; in data set [2] (303.15 K), 801.996 ± 1.3 kg/m3; in data set [2] (308.15 K) it was 798.13 ± 1.4 kg/m3; in data set [2] (313.15 K) it was 794.226 ± 1.4 kg/m3.
Consider `CO` [methanol] + CCC(=O)[O-].CC[NH+]1CCNCC1, for which the viscosity in data set [2] (298.15 K) came to 0.558 ± 0.0068 mPa·s; in data set [2] (303.15 K), 0.5261 ± 0.0065 mPa·s; in data set [2] (308.15 K), 0.4966 ± 0.0061 mPa·s; in data set [2] (313.15 K), 0.4702 ± 0.0058 mPa·s. Further, the mass density in data set [2] (298.15 K) was 786.686 ± 1.4 kg/m3; in data set [2] (303.15 K) it was 781.993 ± 1.4 kg/m3; in data set [2] (308.15 K) it was 777.249 ± 1.4 kg/m3; in data set [2] (313.15 K), 772.475 ± 1.5 kg/m3.
Take `CCC(=O)[O-].CC[NH+]1CCNCC1` [N-ethylpiperazinium propionate]: the mass density in data set [1] (298.15 K) was 1008.36 ± 1.2 kg/m3; in data set [1] (303.15 K), 1004.38 ± 1.2 kg/m3; in data set [1] (308.15 K) it was 1000.33 ± 1.2 kg/m3; in data set [1] (313.15 K), 996.237 ± 1.2 kg/m3. Also, the viscosity in data set [1] (298.15 K) is on record as 243.49 ± 7.6 mPa·s; in data set [1] (303.15 K), 164.81 ± 4.6 mPa·s; in data set [1] (308.15 K), 113.44 ± 2.7 mPa·s; in data set [1] (313.15 K), 80.93 ± 1.8 mPa·s.
`CCO` [ethanol] + CCC(=O)[O-].CC[NH+]1CCNCC1: the viscosity in data set [2] (298.15 K) is on record as 1.091 ± 0.013 mPa·s; in data set [2] (303.15 K), 0.9986 ± 0.012 mPa·s; in data set [2] (308.15 K) it was 0.9139 ± 0.011 mPa·s; in data set [2] (313.15 K) it was 0.8387 ± 0.01 mPa·s. Besides, the mass density in data set [2] (298.15 K) is reported as 785.499 ± 1.4 kg/m3; in data set [2] (303.15 K) it was 781.197 ± 1.4 kg/m3; in data set [2] (308.15 K) it was 776.853 ± 1.4 kg/m3; in data set [2] (313.15 K), 772.468 ± 1.5 kg/m3.
`CO` [methanol]: the mass density in data set [1] (298.15 K) was determined as 786.686 ± 1.4 kg/m3; in data set [1] (303.15 K), 781.993 ± 1.4 kg/m3; in data set [1] (308.15 K), 777.249 ± 1.4 kg/m3; in data set [1] (313.15 K), 772.475 ± 1.5 kg/m3. The viscosity in data set [1] (298.15 K) was 0.558 ± 0.0068 mPa·s; in data set [1] (303.15 K) it was 0.5261 ± 0.0065 mPa·s; in data set [1] (308.15 K), 0.4966 ± 0.0061 mPa·s; in data set [1] (313.15 K), 0.4702 ± 0.0058 mPa·s.
For `CCO` [ethanol], the mass density in data set [1] (298.15 K) came out at 785.499 ± 1.4 kg/m3; in data set [1] (303.15 K), 781.197 ± 1.4 kg/m3; in data set [1] (308.15 K), 776.853 ± 1.4 kg/m3; in data set [1] (313.15 K), 772.468 ± 1.5 kg/m3. In addition, the viscosity worked out at 1.091 ± 0.013 mPa·s in data set [1] (298.15 K), 0.9986 ± 0.012 mPa·s in data set [1] (303.15 K), 0.9139 ± 0.011 mPa·s in data set [1] (308.15 K) and 0.8387 ± 0.01 mPa·s in data set [1] (313.15 K).
